Laboratory results taken from US6358885B1, “Substituted phenylheterocyclic herbicides” (Mississippi State University, priority 1992, dated 2002).

Tests used:
Assay in all cases: Test G preemergence/postemergence greenhouse plant response rating 0 to 100
large crabgrass = type: in vivo, Digitaria sanguinalis; conditions: 0 to 100 scale
Description: (§1) Seeds, rhizomes, or plant parts of alfalfa (Medicago ativa), annual bluegrass (Poa annua), bermudagrass (Cynodon dactylon), broadleaf signalgrass (Brachiaria plantaginea), common purslane (Portulaca oleracea), common ragweed (Ambrosia elatior), […] (Paspalum dilatatum), goosegrass (Eleusine indica), guineagrass (Panicum maximum), […] exaltata), johnsongrass (Sorghum halepense), large crabgrass (Digitaria sanguinalis), peanut (Arachis hypoagaea), pitted morningglory (Ipomoea lacunosa), purple nutsedge (Cyperus rotundus), sandbur (Cenchrus echinatus), smooth crabgrass (Digitaria ischaemum) and yellow nutsedge (Cyperus esculentus) were planted into greenhouse pots containing greenhouse planting medium. Each pot contained only one plant species. The test compound was dissolved in a non-phytotoxic solvent and applied preemergence and/or postemergence to the plants. Preemergence applications were made within one day of planting the seeds or plant parts. Postemergence applications were applied when the plants were in the two to four leaf stage (three to twenty cm). Test chemicals were dissolved in a non-phytotoxic solvent and applied preemergence and postemergence to the plants. Untreated control plants and treated plants were placed in the greenhouse and visually evaluated for injury at 13 to 21 days after herbicide application. […] A dash (-) response indicates no test result.

annual bluegrass = type: in vivo, Poa annua; conditions: 0 to 100 scale
Description: as §1

peanut = type: in vivo, Arachis hypoagaea; conditions: 0 to 100 scale
Description: as §1

yellow nutsedge = type: in vivo, Cyperus esculentus; conditions: Rate 125 g/ha, 0 to 100 scale
Description: as §1

guineagrass = type: in vivo, Panicum maximum; conditions: 0 to 100 scale
Description: as §1

goosegrass = type: in vivo, Eleusine indica; conditions: 0 to 100 scale
Description: as §1

bermudagrass = type: in vivo, Cynodon dactylon; conditions: 0 to 100 scale
Description: as §1

purple nutsedge = type: in vivo, Cyperus rotundus; conditions: Rate 125 g/ha, 0 to 100 scale
Description: as §1

broadleaf signalgrass = type: in vivo, Brachiaria plantaginea; conditions: 0 to 100 scale
Description: as §1

johnsongrass = type: in vivo, Sorghum halepense; conditions: 0 to 100 scale
Description: as §1

pitted morningglory = type: in vivo, Ipomoea lacunosa; conditions: 0 to 100 scale
Description: as §1

itchgrass = type: in vivo, Rottboellia exaltata; conditions: 0 to 100 scale
Description: as §1

dallisgrass = type: in vivo, Paspalum dilatatum; conditions: 0 to 100 scale
Description: as §1

sandbur = type: in vivo, Cenchrus echinatus; conditions: 0 to 100 scale
Description: as §1

common ragweed = type: in vivo, Ambrosia elatior; conditions: 0 to 100 scale
Description: as §1

alfalfa = type: in vivo, Medicago ativa; conditions: 0 to 100 scale
Description: as §1

common purslane = type: in vivo, Portulaca oleracea; conditions: 0 to 100 scale
Description: as §1

**Q.** Which “Plant response rating, Large Crabgrass” value (large crabgrass; POSTEMERGENCE, Rate 125 g/ha) does the source give for COC(=O)C(C)Oc1cc(-c2nn3c(c2Cl)CCCC3)c(F)cc1Cl (stereo not shown) [Compound 28] here?
**A.** 0

**Q.** And the “Plant response rating, Large Crabgrass” value (large crabgrass; POSTEMERGENCE, Rate 250 g/ha)?
**A.** 0

**Q.** And the “Plant response rating, Large Crabgrass” value (large crabgrass; PREEMERGENCE, Rate 125 g/ha)?
**A.** 0

**Q.** And the “Plant response rating, Large Crabgrass” value (large crabgrass; PREEMERGENCE, Rate 250 g/ha)?
**A.** 0

**Q.** And the “Plant response rating, Ann Bluegrass” value (annual bluegrass; POSTEMERGENCE, Rate 125 g/ha)?
**A.** 0

**Q.** And the “Plant response rating, Ann Bluegrass” value (annual bluegrass; POSTEMERGENCE, Rate 250 g/ha)?
**A.** 0

**Q.** And the “Plant response rating, Ann Bluegrass” value (annual bluegrass; PREEMERGENCE, Rate 125 g/ha)?
**A.** 0

**Q.** And the “Plant response rating, Ann Bluegrass” value (annual bluegrass; PREEMERGENCE, Rate 250 g/ha)?
**A.** 0

**Q.** And the “Plant response rating, Peanuts” value (peanut; POSTEMERGENCE, Rate 125 g/ha)?
**A.** 0

**Q.** What about the “Plant response rating, Peanuts” value (peanut; POSTEMERGENCE, Rate 250 g/ha) of the same compound?
**A.** 0

**Q.** What about the “Plant response rating, Peanuts” value (peanut; PREEMERGENCE, Rate 125 g/ha) of the same compound?
**A.** 0

**Q.** What about the “Plant response rating, Peanuts” value (peanut; PREEMERGENCE, Rate 250 g/ha) of the same compound?
**A.** 0

**Q.** And the “Plant response rating, Yellow Nutsedge” value (yellow nutsedge; POSTEMERGENCE)?
**A.** 0

**Q.** And the “Plant response rating, Yellow Nutsedge” value (yellow nutsedge; PREEMERGENCE)?
**A.** 0

**Q.** And the “Plant response rating, Guineagrass” value (guineagrass; POSTEMERGENCE, Rate 125 g/ha)?
**A.** 0

**Q.** What about the “Plant response rating, Guineagrass” value (guineagrass; POSTEMERGENCE, Rate 250 g/ha) of the same compound?
**A.** 0

**Q.** And the “Plant response rating, Guineagrass” value (guineagrass; PREEMERGENCE, Rate 125 g/ha)?
**A.** 0

**Q.** What about the “Plant response rating, Guineagrass” value (guineagrass; PREEMERGENCE, Rate 250 g/ha) of the same compound?
**A.** 0

**Q.** And the “Plant response rating, Goosegrass” value (goosegrass; POSTEMERGENCE, Rate 125 g/ha)?
**A.** 0

**Q.** And the “Plant response rating, Goosegrass” value (goosegrass; POSTEMERGENCE, Rate 250 g/ha)?
**A.** 0

**Q.** And the “Plant response rating, Goosegrass” value (goosegrass; PREEMERGENCE, Rate 125 g/ha)?
**A.** 0

**Q.** What about the “Plant response rating, Goosegrass” value (goosegrass; PREEMERGENCE, Rate 250 g/ha) of the same compound?
**A.** 0

**Q.** What about the “Plant response rating, Bermudagrass” value (bermudagrass; POSTEMERGENCE, Rate 125 g/ha) of the same compound?
**A.** 0

**Q.** And the “Plant response rating, Bermudagrass” value (bermudagrass; POSTEMERGENCE, Rate 250 g/ha)?
**A.** 0

**Q.** And the “Plant response rating, Bermudagrass” value (bermudagrass; PREEMERGENCE, Rate 125 g/ha)?
**A.** 0

**Q.** And the “Plant response rating, Bermudagrass” value (bermudagrass; PREEMERGENCE, Rate 250 g/ha)?
**A.** 0

**Q.** And the “Plant response rating, Purple Nutsedge” value (purple nutsedge; POSTEMERGENCE)?
**A.** 0

**Q.** What about the “Plant response rating, Purple Nutsedge” value (purple nutsedge; PREEMERGENCE) of the same compound?
**A.** 0

**Q.** What about the “Plant response rating, Brdlf Sgnlgrass” value (broadleaf signalgrass; POSTEMERGENCE, Rate 125 g/ha) of the same compound?
**A.** 0

**Q.** What about the “Plant response rating, Brdlf Sgnlgrass” value (broadleaf signalgrass; POSTEMERGENCE, Rate 250 g/ha) of the same compound?
**A.** 0

**Q.** What about the “Plant response rating, Brdlf Sgnlgrass” value (broadleaf signalgrass; PREEMERGENCE, Rate 125 g/ha) of the same compound?
**A.** 0

**Q.** What about the “Plant response rating, Brdlf Sgnlgrass” value (broadleaf signalgrass; PREEMERGENCE, Rate 250 g/ha) of the same compound?
**A.** 0

**Q.** And the “Plant response rating, Johnsongrass” value (johnsongrass; POSTEMERGENCE, Rate 125 g/ha)?
**A.** 0

**Q.** And the “Plant response rating, Johnsongrass” value (johnsongrass; POSTEMERGENCE, Rate 250 g/ha)?
**A.** 0

**Q.** And the “Plant response rating, Johnsongrass” value (johnsongrass; PREEMERGENCE, Rate 125 g/ha)?
**A.** 0

**Q.** What about the “Plant response rating, Johnsongrass” value (johnsongrass; PREEMERGENCE, Rate 250 g/ha) of the same compound?
**A.** 0

**Q.** What about the “Plant response rating, Pit Morninglory” value (pitted morningglory; POSTEMERGENCE, Rate 125 g/ha) of the same compound?
**A.** 0

**Q.** What about the “Plant response rating, Pit Morninglory” value (pitted morningglory; POSTEMERGENCE, Rate 250 g/ha) of the same compound?
**A.** 0

**Q.** And the “Plant response rating, Pit Morninglory” value (pitted morningglory; PREEMERGENCE, Rate 125 g/ha)?
**A.** 0

**Q.** What about the “Plant response rating, Pit Morninglory” value (pitted morningglory; PREEMERGENCE, Rate 250 g/ha) of the same compound?
**A.** 0

**Q.** What about the “Plant response rating, Itchgrass” value (itchgrass; POSTEMERGENCE, Rate 125 g/ha) of the same compound?
**A.** 0

**Q.** And the “Plant response rating, Itchgrass” value (itchgrass; POSTEMERGENCE, Rate 250 g/ha)?
**A.** 0

**Q.** And the “Plant response rating, Itchgrass” value (itchgrass; PREEMERGENCE, Rate 125 g/ha)?
**A.** 0

**Q.** And the “Plant response rating, Itchgrass” value (itchgrass; PREEMERGENCE, Rate 250 g/ha)?
**A.** 0

**Q.** And the “Plant response rating, Dallisgrass” value (dallisgrass; POSTEMERGENCE, Rate 125 g/ha)?
**A.** 0

**Q.** What about the “Plant response rating, Dallisgrass” value (dallisgrass; POSTEMERGENCE, Rate 250 g/ha) of the same compound?
**A.** 0

**Q.** And the “Plant response rating, Dallisgrass” value (dallisgrass; PREEMERGENCE, Rate 125 g/ha)?
**A.** 0

**Q.** And the “Plant response rating, Dallisgrass” value (dallisgrass; PREEMERGENCE, Rate 250 g/ha)?
**A.** 0

**Q.** And the “Plant response rating, S. Sandbur” value (sandbur; POSTEMERGENCE, Rate 125 g/ha)?
**A.** 0

**Q.** What about the “Plant response rating, S. Sandbur” value (sandbur; POSTEMERGENCE, Rate 250 g/ha) of the same compound?
**A.** 0

**Q.** And the “Plant response rating, S. Sandbur” value (sandbur; PREEMERGENCE, Rate 125 g/ha)?
**A.** 0

**Q.** What about the “Plant response rating, S. Sandbur” value (sandbur; PREEMERGENCE, Rate 250 g/ha) of the same compound?
**A.** 0

**Q.** What about the “Plant response rating, Cmn Ragweed” value (common ragweed; POSTEMERGENCE, Rate 125 g/ha) of the same compound?
**A.** 100

**Q.** What about the “Plant response rating, Cmn Ragweed” value (common ragweed; POSTEMERGENCE, Rate 250 g/ha) of the same compound?
**A.** 60

**Q.** What about the “Plant response rating, Cmn Ragweed” value (common ragweed; PREEMERGENCE, Rate 125 g/ha) of the same compound?
**A.** 0

**Q.** And the “Plant response rating, Cmn Ragweed” value (common ragweed; PREEMERGENCE, Rate 250 g/ha)?
**A.** 0

**Q.** And the “Plant response rating, Alfalfa Var.” value (alfalfa; POSTEMERGENCE, Rate 125 g/ha)?
**A.** 0

**Q.** What about the “Plant response rating, Alfalfa Var.” value (alfalfa; POSTEMERGENCE, Rate 250 g/ha) of the same compound?
**A.** 0

**Q.** And the “Plant response rating, Alfalfa Var.” value (alfalfa; PREEMERGENCE, Rate 125 g/ha)?
**A.** 0

**Q.** What about the “Plant response rating, Alfalfa Var.” value (alfalfa; PREEMERGENCE, Rate 250 g/ha) of the same compound?
**A.** 0

**Q.** What about the “Plant response rating, Cmn Purslane” value (common purslane; POSTEMERGENCE, Rate 125 g/ha) of the same compound?
**A.** 30

**Q.** What about the “Plant response rating, Cmn Purslane” value (common purslane; POSTEMERGENCE, Rate 250 g/ha) of the same compound?
**A.** 60

**Q.** And the “Plant response rating, Cmn Purslane” value (common purslane; PREEMERGENCE, Rate 125 g/ha)?
**A.** 0

**Q.** And the “Plant response rating, Cmn Purslane” value (common purslane; PREEMERGENCE, Rate 250 g/ha)?
**A.** 0
